Structures can show the parent of a compound that is named as a salt.
Tests used:
Assay type in all cases: biochemical
[1] = target: T1, MMP-3 (recombinant truncated stromelysin) (Homo sapiens, UniProt P08254); assay: Primary Thiopeptilide MMP-3 Inhibition Assay; conditions: for IC50: x (n): average IC50 of n separate determinations
T1 construct: made in house; host or cells: E. coli

[2] = target: T2, MMP-9 (Gelatinase-B, 92 kDa) (Homo sapiens, UniProt P14780); assay: Thiopeptilide MMP-9 Inhibition Assay; conditions: for IC50: x (n): average IC50 of n separate determinations
T2 construct: from tissue; host or cells: human polymorphonuclear leukocytes from fresh whole blood (New York Blood Center), PMA-stimulated supernatant, purified
Experimental: MMP-9 was isolated modifying the previously described procedures of Hibbs et al (J. Biol. Chem., 260, 2493-2500, 1984) and Wilhelm et al (J. Biol. Chem., 264, 17213-17221, 1989). Briefly, polymorphonuclear leukocytes (PMN) preparations were isolated as described above from 3 or more units of freshly drawn whole blood obtained from the New York Blood Center (N.Y., N.Y.). Cells were resuspended in phosphate buffered saline (PBS) containing 100 ng/ml phorbol myristate acetate (PMA) in the presence of 50 mM di-isopropylfluorophospate (DFP), 1 μg/ml leupeptin and aprotinin, and 1 mg/ml catalase for 1 hr at 37° C. Supernatants were collected by centrifugation (300×g) and the samples were frozen at -70° C. All chromatographic methods were performed at 4° C. Thawed samples were concentrated 5-fold using an Amicon chamber equipped with a YM-10 membrane. The concentrate was pressure dialyzed against 0.02M Tris-HCl, 0.1M NaCl, 1 mM CaCl2, 1 μM ZnCl2, 0.001 % Brij-35, 0.02% sodium azide (NaN3), pH 7.5 and applied to DEAE ion exchange chromatography resin which was previously equilibrated with the same buffer at a flow rate of 0.4 ml/min. The column was extensively washed with the same buffer and gelatinase was eluted as 4 ml fractions from the column with 0.02M Tris-HCl, 0.5M NaCl, 1 mM CaCl2, 1 μM ZnCl2, 0.001% Brij-35, 0.02% NaN3, pH 7.5. Gelatinase containing fractions were observed by gelatin zymography (see below), loaded onto a gelatin agarose affinity resin and washed with the same buffer. Gelatinase activity was eluted at a flow rate of 1 ml/min from the column as 1 ml fractions with 0.02M Tris-HCl, 1M NaCl, 1 mM CaCl2, 1 μmM ZnCl2, 0.001% Brij-35, 0.02% NaN3, pH 7.5 containing 10% dimethyl sulfoxide (DMSO). The fractions containing gelatinase activity were pooled and dialyzed against 0.005M Tris-HCl, 5 mM NaCl, 0.5 mM CaCl2, 0.1 μM ZnCl2, 0.001% Brij-35, pH 7.4. The protein content associated with material was determined with a micro-BCA assay (Pierce, Rockford, Ill.), lyophilized and reconstituted to a desired working concentration (100 μg/ml).
Progelatinase (10 μg/ml) isolated from human PMNs (described above) was activated with 1 mM 4-aminophenylmercuric acetate (APMA) in 50 mM Tris-HCl, 200 mM NaCl, 5 mM CaCl2, 0.001% Brij-35, pH 7.6 at 37° C. for 16 hr. The activated enzyme was dialyzed against the above buffer to remove APMA. The thiopeptolide spectrophotometric ( Weingarten, H., Feder, J., Anal. Biochem., 147, 437-440, 1985) substrate hydrolysis assay was modified to a micro-assay format. Spectrophotometric analysis of MMP-9 activity required a 1000-fold dilution of activated MMP-9 (10 ng/ml, 0.14 nM) in assay buffer comprised of 50 mM 4-(2-hydroxyethyl)1-piperazine ethane sulfonic acid (HEPES), 0.15M NaCl, 10 mM CaCl2, 0.001% Brij-35, pH 6.5 between 100 and 1000-fold for enzyme assays. Reaction mixtures for inhibitor studies contained 1 mM Ac-Pro-Leu-Gly-S-Leu-Leu-Gly-o-ethyl thiopeptolide substrate dissolved in HEPES assay buffer pH 6.5, along with 0.5 mM 5,5'-dithio-bis-(nitrobenzoicacid), drug concentrations ranging from 0.5 nM to 5 μM and activated enzyme (10-100 ng) in a total volume of 130 μl. The hydrolysis of substrate was monitored at 405 nm using an automated plate reader (Molecular Devices, Menlo Park, Calif.). Enzyme mediated substrate hydrolysis was corrected for non-enzymatic hydrolysis of the substrate by the subtraction of values from control samples incubated in the absence of enzyme. Drug efficacy was reported as the percent inhibition of enzyme activity calculated as:
(Control Values-Treated Values)/Control Values×100
Two way analysis of variance was used to determine significance between individual test groups.
All IC50 values are expressed as nM. When "I=x %" is shown, x presents the % inhibition at 5 μM. When "x (n)" is shown, x is the erage IC50 value of n separate determinations.

MMP = MMP inhibitory activity

T2 sequence (P14780 107-707 limits assumed): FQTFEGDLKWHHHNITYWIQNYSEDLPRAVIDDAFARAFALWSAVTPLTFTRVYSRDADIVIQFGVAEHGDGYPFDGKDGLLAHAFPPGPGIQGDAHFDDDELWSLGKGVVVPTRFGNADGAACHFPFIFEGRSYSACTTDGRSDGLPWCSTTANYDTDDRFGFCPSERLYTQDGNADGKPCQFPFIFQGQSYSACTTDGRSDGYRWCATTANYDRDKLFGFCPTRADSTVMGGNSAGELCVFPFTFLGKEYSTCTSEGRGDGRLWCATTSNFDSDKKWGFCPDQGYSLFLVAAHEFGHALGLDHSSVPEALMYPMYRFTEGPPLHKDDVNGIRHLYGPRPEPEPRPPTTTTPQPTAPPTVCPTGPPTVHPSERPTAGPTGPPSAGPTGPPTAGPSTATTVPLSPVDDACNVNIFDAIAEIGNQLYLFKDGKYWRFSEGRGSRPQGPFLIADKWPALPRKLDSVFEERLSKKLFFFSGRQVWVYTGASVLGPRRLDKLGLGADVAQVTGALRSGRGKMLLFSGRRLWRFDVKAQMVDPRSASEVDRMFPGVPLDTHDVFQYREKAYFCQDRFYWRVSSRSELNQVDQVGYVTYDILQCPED
T1 sequence (P08254 100-274 limits assumed): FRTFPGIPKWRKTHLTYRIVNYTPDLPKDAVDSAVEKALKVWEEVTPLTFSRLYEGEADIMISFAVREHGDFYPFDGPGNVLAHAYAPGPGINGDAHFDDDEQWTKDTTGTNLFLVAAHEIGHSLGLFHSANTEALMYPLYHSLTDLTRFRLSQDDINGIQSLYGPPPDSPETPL

Compound | IC50 [1] [nM] | IC50 [2] [nM] | also measured
CC(C)CC(CC(O)c1ccc(-c2ccc(Cl)cc2)cc1)C(=O)O (stereo not drawn) [Example 27, [1,1'-Biphenyl]-4-butanoic acid, 4'-chloro-γ-hydroxy-α-(2-methylpropyl)-] | 5000 |  | 
O=C(CC(CCCc1ccccc1)C(=O)O)c1ccc(-c2ccccc2)cc1 (stereo not drawn) [Example 91, [1,1'-Biphenyl]-4-butanoic acid, γ-oxo-α-(3-phenylpropyl)-] |  | 2800 | MMP inhibitory activity / potency in words (MMP): low potency
O=C(C[C@@H](C[S+]([O-])c1ccccc1)C(=O)O)c1ccc(-c2ccc(Cl)cc2)cc1 (stereo partly drawn) [Example 126, [1,1'-Biphenyl]-4-butanoic acid, 4'-chloro-γ-oxo-α-[(phenylsulfmyl)methyl]-,stereoisomer] |  |  | MMP-3 Thiopeptilide % inhibition (I) ([1]; at 5 μM): 17%
CC(=O)SC(CC(=O)c1ccc(Oc2ccc(Cl)cc2)cc1)C(=O)O (stereo not drawn) [Example 183, Benzenebutanoic acid, α-(acetylthio)-4-(4-chlorophenoxy)-γ-oxo-, reference compound] |  |  | MMP inhibitory activity / potency in words (MMP): very low potency
O=C(O)[C@@H]1CC[C@H]1C(=O)c1ccc(-c2ccc(Cl)cc2)cc1 (relative stereo) [Example 206, Cyclobutanecarboxylic acid, 2-[(4'-chloro[1,1'-biphenyl]-4-yl)carbonyl]-, trans-] |  |  | MMP inhibitory activity / potency in words (MMP): much more active
CC(C)CC(CC(O)c1ccc(-c2ccc(Cl)cc2)cc1)C(=O)O (stereo not drawn) [Example 26, [1,1'-Biphenyl]-4-butanoic acid, 4'-chloro-γ-hydroxy-α-(2-methylpropyl)-] | 2600 | 2400 | 
O=C(CC(C(=O)O)N1CCSCC1)c1ccc(-c2ccc(Cl)cc2)cc1 (stereo not drawn) [Example 184, 4-Thiomorpholineacetic acid, α-[2-(4'-chloro[1,1'-biphenyl]-4-yl)-2-oxoethyl]-, hydrochloride] |  |  | inhibition at 5 µM ([1]; at 5 μM, read-out: MMP-3 Thiopeptilide % inhibition (I)): 19%
O=C(CC(Cc1ccccc1)C(=O)O)c1ccc(-c2ccc(Cl)cc2)cc1 (stereo not drawn) [Example 105, [1,1'-Biphenyl]-4-butanoic acid, 4'-chloro-γ-oxo-α-(phenylmethyl)-] |  | 900 | 
CCN(CC)CCC(CC(=O)c1ccc(-c2ccc(Cl)cc2)cc1)C(=O)O (stereo not drawn) [Example 191, [1,1'-Biphenyl]-4-butanoic acid, 4'-chloro-α-[2-(diethylamino)ethyl]-γ-oxo-,hydrochloride] |  |  | inhibition at 5 µM ([2]; at 5 μM, read-out: MMP-9 Thiopeptilide % inhibition (I)): 31%
CC(C)CC(CC(=O)c1ccc(-c2ccccc2)cc1)C(=O)O (stereo not drawn) [Example 13, [1,1'-Biphenyl]-4-butanoic acid, α-(2-methylpropyl)-γ-oxo-] |  |  | MMP inhibitory activity / potency in words (MMP): low potency

More lines, main results first:

IC50 [1] [nM] | IC50 [2] [nM] | Compound | also measured
140 |  | O=C(O)[C@@H]1[C@@H](Cc2ccccc2)CC[C@H]1C(=O)c1ccc(-c2ccc(Cl)cc2)cc1 (relative stereo) [Example 227, Cyclopentanecarboxylic acid, 2-[(4'-chloro [1,1'-biphenyl]-4-yl)carbonyl]-5-(phenylmethyl)-, (1α,2β,5β)-] | 
80 | 32 | O=C(O)[C@@H]1[C@@H](Sc2ccc(Cl)cc2)CC[C@H]1C(=O)c1ccc(-c2ccc(Cl)cc2)cc1 (relative stereo) [Example 222, Cyclopentanecarboxylic acid, 2-[(4'-chloro [1,1'-biphenyl]-4-yl)carbonyl]-5-[(4-chlorophenyl)thio]-, (1α,2β,5β)-] | 
98 |  | CCOc1ccc(-c2ccc(C(=O)[C@@H]3CC[C@H](Cc4ccccc4)[C@H]3C(=O)O)cc2)cc1 (relative stereo) [Example 226, Cyclopentanecarboxylic acid, 2-[(4'-ethoxy[1,1'-biphenyl]-4-yl)carbonyl]-5-(phenylmethyl)-, (1α,2β,5β)-] | 
340 | 700 | O=C(O)[C@@H]1[C@H](Sc2ccc(Cl)cc2)CC[C@H]1C(=O)c1ccc(-c2ccc(Cl)cc2)cc1 (relative stereo) [Example 223, Cyclopentanecarboxylic acid, 2-[(4'-chloro[1,1'-biphenyl]-4-yl)carbonyl]-5-[(4-chlorophenyl)thio]-, (1α,2β,5α)-] | 
 | 640 | O=C(O)[C@@H]1[C@@H](C(=O)c2ccc(-c3ccc(Cl)cc3)cc2)CC[C@H]1Sc1ccccc1 (single isomer, unassigned) [Example 212, Cyclopentanecarboxylic acid, 2-[(4'-chloro[,1'-biphenyl]-4-yl)carbonyl]-5-(phenylthio)-, [1R-(1α,2β,5β)]-] | 
66 |  | CCOc1ccc(-c2ccc(C(=O)[C@@H]3CC[C@@H](Sc4ccccc4)[C@H]3C(=O)O)cc2)cc1 (relative stereo) [Example 225, Cyclopentanecarboxylic acid, 2-[(4'-ethoxy[1,1'-biphenyl]-4-yl)carbonyl]-5-(phenylthio)-, (1α,2β,5α)-] | 
38 | 1.8 | O=C(CC(CCN1C(=O)c2ccccc2C1=O)C(=O)O)c1ccc(-c2ccc(Cl)cc2)cc1 (stereo not drawn) [Example 194, 2H-Isoindole-2-butanoic acid, α-[2-(4'-chloro[1,1'-biphenyl]-4-yl)-2-oxoethyl]-1,3-dihydro-1,3-dioxo-] | 
36 |  | CCOc1ccc(-c2ccc(C(=O)[C@@H]3CC[C@H](Sc4ccccc4)[C@H]3C(=O)O)cc2)cc1 (relative stereo) [Example 224, Cyclopentanecarboxylic acid, 2-[(4'-ethoxy[1,1'-biphenyl]-4-yl)carbonyl]-5-(phenylthio)-, (1α,2β,5β)-] | 
33 | 108 | COC(=O)c1ccccc1S[C@@H]1CC[C@H](C(=O)c2ccc(-c3ccc(Cl)cc3)cc2)[C@H]1C(=O)O (relative stereo) [Example 219, Benzoic acid, 2-[[2-carboxy-3-[(4'-chloro[1,1'-biphenyl]-4-yl)carbonyl]cyclopentyl]thio]-, 1-methyl ester, (1α,2β,3α)-] | 
1600 |  | Cc1cc(C)cc(SCC(CC(=O)c2ccc(-c3ccc(Cl)cc3)cc2)C(=O)O)c1 (stereo not drawn) [Example 165, [1,1'-Biphenyl]-4-butanoic acid, 4'-chloro-α-[[(3,5-dimethylphenyl)thio]methyl]-γ-oxo-] | 

Reference: US5886022A, “Substituted cycloalkanecarboxylic acid derivatives as matrix metalloprotease inhibitors” (priority 1997, dated 1999)
